Laboratory results from patent US20230099031A1, “BIFUNCTIONAL AGENTS FOR PROTEIN RECRUITMENT AND/OR DEGRADATION” (Orionis Biosciences, Inc., priority 2019, published 2023).
pIC50: −log10 of the molar value. Structures can show the parent of a compound that is named as a salt.

Biological target: T1, CRBN (Homo sapiens, UniProt Q96SW2)
T1 construct: expressed in transfected cells; host or cells: HEK293T
Assay: Competition Assay: MAPPIT-like, competition with trimethoprim-lenalidomide hybrid ligand for binding to CRBN in HEK293T cells
Type: cell-based
Details: protocol and reagents of Example 1; read-out: IC50 Competition
Text: A bait protein (protein A) is expressed as a fusion protein in which it is genetically fused to an engineered intracellular receptor domain of the leptin receptor, which is itself fused to the extracellular domain of the erythropoietin (Epo) receptor. Binding of Epo ligand to the EpoR component results in activation of receptor-associated intracellular JAK2. However, activated JAK2 cannot activate the leptin receptor to trigger STAT3 binding and its phosphorylation because its tyrosine residues, normally phosphorylated by activated JAK2, have been mutated. Reconstitution of a JAK2 phosphorylatable STAT3 docking site is instead created through interaction of a protein B with protein A, whereby protein B is fused to a cytoplasmic domain of the gp130 receptor (which now harbors appropriate tyrosine resides recognized by the activated JAK2 kinase). Thus, physical interaction of protein A with protein B reconstitutes and Epo triggers JAK2-STAT3 signaling pathway activation. Activation of STAT3 can be monitored by introduction of a STAT3-responsive reporter gene, including a luciferase-encoding gene or a gene encoding a fluorescent marker such as GFP or some other type of fluorescent protein (EGF etc.). In this manner, the MAPPIT assay provides a versatile assay to assess such recombinant protein-protein interactions, or compound- or hybrid ligand-induced protein-protein interactions, in intact cells.
Formation of the complex results in activation of a STAT-responsive luciferase reporter gene. That signal is set to 100% luciferase activity. In a separate sample set up, cells are prepared in the same manner but, in addition, co-incubated with a test compound whose interaction with CRBN is investigated. […] Increasing concentrations of test compound are assessed to determine CRBN binding efficiency as determined in this type of ligand competition experiment in living cells. Specificity of signal inhibition is assessed by a parallel experimental set up in which test compound effect is assessed for inhibition of signal generated by a control gp130 fusion protein (CTRL) that directly binds to the DHFR-fusion protein in the absence of hybrid ligand (i.e. a direct interaction of the proteins).
In more detail, HEK293T cells are cultured in Dulbecco's modified Eagle's medium supplemented with 10% fetal calf serum, incubated at 37° C., 8% CO2. […] Data points represent the average luciferase activity of triplicate samples derived from cells treated with leptin+test compound for the REM2 control (CTRL) or cells treated with leptin+hybrid ligand+test compound (CRBN) relative to leptin (CTRL) or leptin+hybrid ligand (CRBN) only treated samples (the signals obtained in absence of added test compound for both cases is set at 100% of luciferase activity on y-axis). Error bars represent standard deviations. Curves are fit using 4-parameter nonlinear regression in […] PRISM software

How did the pIC50 turn out when Nc1cccc2c1CCN(C1CCC(=O)NC1=O)C2=O (stereo not shown) [Compound C47933, 3-(5-amino-1-oxo-3,4-dihydroisoquinolin-2-yl)piperidine-2,6-dione] was run?
The pIC50 was 5.96.

O=C(O)CNc1ccc2c(c1)C(=O)N(C1CCC(=O)NC1=O)C2 (stereo not shown) [Compound C47997, 2-[[2-(2,6-dioxo-3-piperidyl)-3-oxo-isoindolin-5-yl]amino]acetic acid] was tested. Which pIC50 did it give?
Its pIC50 is 5.04.

With N#Cc1cccc2c1C(=O)N(C1CCC(=O)NC1=O)C2 (stereo not shown) [Compound C48009, 2-(2,6-dioxo-3-piperidyl)-3-oxo-isoindoline-4-carbonitrile] as the compound, how does the pIC50 read?
The pIC50 was 5.66.

O=C1CCC(N2Cc3cccc(-c4ccccc4)c3C2=O)C(=O)N1 (stereo not shown) [Compound C48020, 3-(1-oxo-7-phenyl-isoindolin-2-yl)piperidine-2,6-dione] was tested. Which pIC50 did it give?
Its pIC50 is 6.26.

With O=C1N=CC(N2C(=O)c3ccccc3C2=O)C(=O)N1 (stereo not shown) [Compound C49278, 2-(2,6-dioxo-5H-pyrimidin-5-yl)isoindoline-1,3-dione] as the compound, how does the pIC50 read?
Its pIC50 is 4.34.

How did the pIC50 turn out when CN(C)CC(=O)Nc1ccc2c(c1)C(=O)N(C1CCC(=O)NC1=O)C2 (stereo not shown) [Compound C49708, 2-(dimethylamino)-N-[2-(2,6-dioxo-3-piperidyl)-3-oxo-isoindolin-5-yl]acetamide] was run?
The pIC50 was 6.12.

How did the pIC50 turn out when O=C1CCC(N2C(=O)c3ccccc3C2C2=c3ccccc3=NC2)C(=O)N1 (stereo not shown) [Compound C49713, 3-[1-(2H-indol-3-yl)-3-oxo-isoindolin-2-yl]piperidine-2,6-dione] was run?
The pIC50 was 5.17.

With O=C1CCC(Nc2ncccn2)C(=O)N1 (stereo not shown) [Compound C55468, 3-(pyrimidin-2-ylamino)piperidine-2,6-dione] as the compound, how does the pIC50 read?
The pIC50 was 5.06.

With COC1c2ccccc2C(=O)N1C1CCC(=O)NC1=O (stereo not shown) [Compound C56572, 3-(1-methoxy-3-oxo-isoindolin-2-yl)piperidine-2,6-dione] as the compound, how does the pIC50 read?
The pIC50 was 5.07.

With O=C1CCC(N2C(=O)C=C(c3ccccc3)C2=O)C(=O)N1 (stereo not shown) [Compound C64319, 3-(2,5-dioxo-3-phenyl-pyrrol-1-yl)piperidine-2,6-dione] as the compound, how does the pIC50 read?
The pIC50 was 4.37.

O=C1CCC(N2C(=O)CC3(Cc4ccccc4C3)C2=O)C(=O)N1 (stereo not shown) [Compound C64329, 1′-(2,6-dioxo-3-piperidyl)spiro[indane-2,3′-pyrrolidine]-2′,5′-dione] was tested. Which pIC50 did it give?
Its pIC50 is 4.82.

How did the pIC50 turn out when O=C1CCC(N2C(=O)CC3(CCOCC3)C2=O)C(=O)N1 (stereo not shown) [Compound C64348, 2-(2,6-dioxo-3-piperidyl)-8-oxa-2-azaspiro[4.5]decane-1,3-dione] was run?
Its pIC50 is 4.89.

How did the pIC50 turn out when Cc1nc(N(C)C)cc2c1C(=O)N(C1CCC(=O)NC1=O)C2=O (stereo not shown) [Compound C64376, 6-(dimethylamino)-2-(2,6-dioxo-3-piperidyl)-4-methyl-pyrrolo[3,4-c]pyridine-1,3-dione] was run?
Its pIC50 is 5.40.

How did the pIC50 turn out when NCc1ccc2c(c1)C(=O)N(C1CCC(=O)NC1=O)C2 (stereo not shown) [Compound C66979, 3-[6-(aminomethyl)-1-oxo-isoindolin-2-yl]piperidine-2,6-dione] was run?
Its pIC50 is 6.20.

With O=C1CC/C(=C/c2ccccc2)C(=O)N1 [Compound C68121, (3Z)-3-benzylidenepiperidine-2,6-dione] as the compound, how does the pIC50 read?
The pIC50 was 5.19.

Cc1cccc2c1C(=O)N(C1CCC(=O)NC1=O)S2(=O)=O (stereo not shown) [Compound C73349, 3-(4-methyl-1,1,3-trioxo-1,2-benzothiazol-2-yl)piperidine-2,6-dione] was tested. Which pIC50 did it give?
Its pIC50 is 5.31.

COc1ccc(Br)c2c1C(=O)N(C1CCC(=O)NC1=O)C2 (stereo not shown) [Compound C74668, 3-(4-bromo-7-methoxy-1-oxo-isoindolin-2-yl)piperidine-2,6-dione] was tested. Which pIC50 did it give?
Its pIC50 is 8.72.

Cc1cccc2c1S(=O)(=O)N(C1CCC(=O)NC1=O)C2=O (stereo not shown) [Compound C75688, 3-(7-methyl-1,1,3-trioxo-1,2-benzothiazol-2-yl)piperidine-2,6-dione] was tested. Which pIC50 did it give?
The pIC50 was 4.83.

How did the pIC50 turn out when NC1Cc2ccccc2C1=O (stereo not shown) [Compound C75987, 2-aminoindan-1-one; hydrochloride] was run?
Its pIC50 is 4.95.

How did the pIC50 turn out when O=C1CCC(N2Cc3cc(Nc4ncnc5sccc45)ccc3C2=O)C(=O)N1 (stereo not shown) [Compound C80370, 3-[1-oxo-5-(thieno[2,3-d]pyrimidin-4-ylamino)isoindolin-2-yl]piperidine-2,6-dione] was run?
Its pIC50 is 7.96.

With Cn1ncc2c(Nc3ccc4c(c3)CN(C3CCC(=O)NC3=O)C4=O)ncnc21 (stereo not shown) [Compound C80374, 3-[5-[(1-methylpyrazolo[3,4-d]pyrimidin-4-yl)amino]-1-oxo-isoindolin-2-yl]piperidine-2,6-dione] as the compound, how does the pIC50 read?
The pIC50 was 4.78.

With Nc1nccc(Nc2ccc3c(c2)CN(C2CCC(=O)NC2=O)C3=O)n1 (stereo not shown) [Compound C80375, 3-[5-[(2-aminopyrimidin-4-yl)amino]-1-oxo-isoindolin-2-yl]piperidine-2,6-dione] as the compound, how does the pIC50 read?
Its pIC50 is 5.69.

Nc1nc(Nc2ccc3c(c2)CN(C2CCC(=O)NC2=O)C3=O)nc2sccc12 (stereo not shown) [Compound C80379, 3-[5-[(4-aminothieno[2,3-d]pyrimidin-2-yl)amino]-1-oxo-isoindolin-2-yl]piperidine-2,6-dione] was tested. Which pIC50 did it give?
The pIC50 was 6.01.

With Cn1ncc2c(Nc3ccc4c(c3)C(=O)N(C3CCC(=O)NC3=O)C4)ncnc21 (stereo not shown) [Compound C80383, 3-[6-[(1-methylpyrazolo[3,4-d]pyrimidin-4-yl)amino]-1-oxo-isoindolin-2-yl]piperidine-2,6-dione] as the compound, how does the pIC50 read?
Its pIC50 is 6.83.

Cc1cc(Nc2ccc3c(c2)C(=O)N(C2CCC(=O)NC2=O)C3)ncn1 (stereo not shown) [Compound C80384, 3-[6-[(6-methylpyrimidin-4-yl)amino]-1-oxo-isoindolin-2-yl]piperidine-2,6-dione] was tested. Which pIC50 did it give?
The pIC50 was 6.75.

How did the pIC50 turn out when O=C1CCC(N2Cc3ccc(Nc4cnc5ccccc5n4)cc3C2=O)C(=O)N1 (stereo not shown) [Compound C80386, 3-[1-oxo-6-(quinoxalin-2-ylamino)isoindolin-2-yl]piperidine-2,6-dione] was run?
The pIC50 was 7.17.

With Cn1ccnc(Nc2ccc3c(c2)C(=O)N(C2CCC(=O)NC2=O)C3)c1=O (stereo not shown) [Compound C80387, 3-[6-[(4-methyl-3-oxo-pyrazin-2-yl)amino]-1-oxo-isoindolin-2-yl]piperidine-2,6-dione] as the compound, how does the pIC50 read?
Its pIC50 is 7.27.

With N#Cc1ccc(Nc2ccc3c(c2)C(=O)N(C2CCC(=O)NC2=O)C3)nn1 (stereo not shown) [Compound C80389, 6-[[2-(2,6-dioxo-3-piperidyl)-3-oxo-isoindolin-5-yl]amino]pyridazine-3-carbonitrile] as the compound, how does the pIC50 read?
The pIC50 was 6.19.

With Cc1cc2[nH]cnc(Nc3ccc4c(c3)C(=O)N(C3CCC(=O)NC3=O)C4)c-2n1 (stereo not shown) [Compound C80390, 3-[6-[(6-methylpyrrolo[3,2-d]pyrimidin-4-yl)amino]-1-oxo-isoindolin-2-yl]piperidine-2,6-dione] as the compound, how does the pIC50 read?
Its pIC50 is 6.14.

O=C1CCC(N2Cc3ccc(NC(=O)c4ccc5ccccc5n4)cc3C2=O)C(=O)N1 (stereo not shown) [Compound C80392, N-[2-(2,6-dioxo-3-piperidyl)-3-oxo-isoindolin-5-yl]quinoline-2-carboxamide] was tested. Which pIC50 did it give?
Its pIC50 is 10.69.

O=C1CCC(N2Cc3ccc(NC(=O)c4ccc5cnccc5n4)cc3C2=O)C(=O)N1 (stereo not shown) [Compound C80393, N-[2-(2,6-dioxo-3-piperidyl)-3-oxo-isoindolin-5-yl]-1,6-naphthyridine-2-carboxamide] was tested. Which pIC50 did it give?
Its pIC50 is 8.15.

How did the pIC50 turn out when O=C1CCC(N2Cc3ccc(NC(=O)C4=C5C=CN=C5N=CC4)cc3C2=O)C(=O)N1 (stereo not shown) [Compound C80395, N-[2-(2,6-dioxo-3-piperidyl)-3-oxo-isoindolin-5-yl]-5H-pyrrolo[2,3-6]pyridine-4-carboxamide] was run?
Its pIC50 is 6.06.

With NC(=O)CNc1ccc2c(c1)C(=O)N(C1CCC(=O)NC1=O)C2 (stereo not shown) [Compound C84961, 2-[[2-(2,6-dioxo-3-piperidyl)-3-oxo-isoindolin-5-yl]amino]acetamide] as the compound, how does the pIC50 read?
The pIC50 was 5.40.

O=C1CCC(N2Cc3ccc(NCC(=O)NC4CC4)cc3C2=O)C(=O)N1 (stereo not shown) [Compound C84963, N-cyclopropyl-2-[[2-(2,6-dioxo-3-piperidyl)-3-oxo-isoindolin-5-yl]amino]acetamide] was tested. Which pIC50 did it give?
The pIC50 was 5.92.

With CN(C)C(=O)CNc1ccc2c(c1)C(=O)N(C1CCC(=O)NC1=O)C2 (stereo not shown) [Compound C84964, 2-[[2-(2,6-dioxo-3-piperidyl)-3-oxo-isoindolin-5-yl]amino]-N,N-dimethyl-acetamide] as the compound, how does the pIC50 read?
The pIC50 was 6.58.

How did the pIC50 turn out when O=C1CCC(N2Cc3ccc(NCC(=O)Nc4ccccc4)cc3C2=O)C(=O)N1 (stereo not shown) [Compound C84965, 2-[[2-(2,6-dioxo-3-piperidyl)-3-oxo-isoindolin-5-yl]amino]-N-phenyl-acetamide] was run?
The pIC50 was 6.70.

With O=C(CNc1ccc2c(c1)C(=O)N(C1CCC(=O)NC1=O)C2)NCc1ccccc1 (stereo not shown) [Compound C84966, N-benzyl-2-[[2-(2,6-dioxo-3-piperidyl)-3-oxo-isoindolin-5-yl]amino]acetamide] as the compound, how does the pIC50 read?
The pIC50 was 6.22.
